Experimental data published in US11945816B2, “Inhibitors of EGFR and/or HER2 and methods of use” (Dana-Farber Cancer Institute, Inc., priority 2017, dated 2024).

Experiments:
Format in all cases: cell-based
[1] = target: mutant EGFR T790M/exon19del transformed Ba/F3 cells (Homo sapiens, UniProt P00533, T790M, cells depend on it, form not given); experiment: Proliferation inhibition assay, EGFR T790M/exon19del transformed Ba/F3 cells
[2] = target: T1, EGFR InsH transformed Ba/F3 cells (Homo sapiens, UniProt P00533, DUP773-773); experiment: Proliferation inhibition assay, EGFR InsH transformed Ba/F3 cells; settings: MTS assay, 72 hours
T1 construct: expressed in transfected cells; host or cells: Ba/F3
Procedure: (§1) Cell growth inhibition can be assessed by MTS assay or by Cell Titer Glo Luminescent Cell viability assay (Promega®). Cells are seeded and grow in culture plates before they are exposed to representative compounds of the application for various duration. The viability of the cells are then assessed. […] The growth curves can be fitted using a nonlinear regression model with sigmoidal dose response.
(§2) Cell growth inhibition was assessed by MTS assay for Ba/F3, DFCI58-229, and DFCI127c cells, or by Cell Titer Glo Luminescent Cell viability assay (Promega®) for DFC1362JC cells, 3000 Ba/F3 cells were seeded for per well in 96-well plates, and were exposed to representative compounds of the application (3.3 nM to 10 μM) for 72 hours. For DFCI58-229, DFCI127c, and DFC1362JC cells, 5000 cells were seeded per well. All experimental points included 6 to 12 wells. […] The growth curves were fitted using a nonlinear regression model with sigmoidal dose response.
(§3) Activities of representative compounds of the present application in inhibiting EGFR and HER2 were tested by MTS assay (for Ba/F3 cell, DFCI58-229 cell, and DFCI127c cells) or by CellTiter-Glot luminescent cell viability assay (for DFCI362JC cells). For assays with Ba/F3 cells, 3000 cells were seeded for per well in 96-well plates and were exposed to indicated compounds with a concentration of 3.3 to 10 μM for 72 hours. For assays with DFCI58-229 cell, DFCI127c cell, or DFCI362JC cell, 5000 cells were seeded per well in 96-well plates and were exposed to indicated compounds with a concentration of 3.3 to 10 μM for 72 hours.

[3] = target: mutant EGFR Exon19del transformed Ba/F3 cells (Homo sapiens, UniProt P00533, cells depend on it, form not given); experiment: Proliferation inhibition assay, EGFR Exon19del transformed Ba/F3 cells
[4] = target: T2, HER2 InsGSP (P780_Y781insGSP) transformed Ba/F3 cells (Homo sapiens, UniProt P04626, INS780GSP); experiment: Proliferation inhibition assay, HER2 InsGSP transformed Ba/F3 cells; settings: MTS assay, 72 hours, Table 9 key
T2 construct: expressed in transfected cells; host or cells: Ba/F3
Procedure: as §1, §2, §3

[5] = target: T3, HER2 InsVC (G776delinsVC) transformed Ba/F3 cells (Homo sapiens, UniProt P04626, G776C/INS775V); experiment: Proliferation inhibition assay, HER2 InsVC transformed Ba/F3 cells; settings: MTS assay, 72 hours, Table 9 key
T3 construct: expressed in transfected cells; host or cells: Ba/F3
T3 sequence (P04626 with tags, fused parts or gaps INS775V/G776C): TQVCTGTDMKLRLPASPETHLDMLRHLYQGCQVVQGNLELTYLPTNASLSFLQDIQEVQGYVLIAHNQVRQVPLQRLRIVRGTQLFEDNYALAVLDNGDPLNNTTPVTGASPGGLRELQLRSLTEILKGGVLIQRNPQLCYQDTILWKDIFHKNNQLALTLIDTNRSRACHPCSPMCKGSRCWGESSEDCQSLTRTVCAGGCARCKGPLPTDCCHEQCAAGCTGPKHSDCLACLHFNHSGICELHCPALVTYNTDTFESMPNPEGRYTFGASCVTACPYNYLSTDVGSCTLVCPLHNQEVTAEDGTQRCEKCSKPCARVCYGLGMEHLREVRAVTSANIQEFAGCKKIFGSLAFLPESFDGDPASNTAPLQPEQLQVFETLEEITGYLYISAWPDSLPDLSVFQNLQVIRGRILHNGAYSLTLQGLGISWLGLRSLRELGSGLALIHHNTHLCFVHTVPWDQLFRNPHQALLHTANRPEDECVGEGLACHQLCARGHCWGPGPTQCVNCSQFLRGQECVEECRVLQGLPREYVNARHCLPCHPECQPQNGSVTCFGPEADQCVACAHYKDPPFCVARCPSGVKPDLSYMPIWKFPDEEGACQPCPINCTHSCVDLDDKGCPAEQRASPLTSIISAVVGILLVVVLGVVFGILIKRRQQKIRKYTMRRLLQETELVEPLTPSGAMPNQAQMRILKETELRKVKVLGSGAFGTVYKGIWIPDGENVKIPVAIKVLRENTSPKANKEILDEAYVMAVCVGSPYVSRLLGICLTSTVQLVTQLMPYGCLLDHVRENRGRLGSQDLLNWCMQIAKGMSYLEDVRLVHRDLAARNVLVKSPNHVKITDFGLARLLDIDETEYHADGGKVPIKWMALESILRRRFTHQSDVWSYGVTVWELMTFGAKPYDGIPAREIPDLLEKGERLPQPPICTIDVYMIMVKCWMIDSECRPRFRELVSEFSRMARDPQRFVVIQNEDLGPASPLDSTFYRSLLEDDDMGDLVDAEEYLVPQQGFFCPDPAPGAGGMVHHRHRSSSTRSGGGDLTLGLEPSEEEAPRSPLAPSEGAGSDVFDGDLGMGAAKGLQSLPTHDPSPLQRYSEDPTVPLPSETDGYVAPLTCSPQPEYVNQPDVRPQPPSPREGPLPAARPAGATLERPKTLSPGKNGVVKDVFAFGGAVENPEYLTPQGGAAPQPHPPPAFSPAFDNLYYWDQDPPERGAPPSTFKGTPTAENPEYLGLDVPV
Procedure: as §1, §2, §3

[6] = target: T4, mutant EGFR L858R transformed Ba/F3 cells (Homo sapiens, UniProt P00533, L858R); experiment: Proliferation inhibition assay, EGFR L858R transformed Ba/F3 cells
T4 construct: expressed in transfected cells; host or cells: Ba/F3

[7] = target: T5, HER2 InsYVMA (A775_G776insYVMA) transformed Ba/F3 cells (Homo sapiens, UniProt P04626, INS775YVMA); experiment: Proliferation inhibition assay, HER2 InsYVMA transformed Ba/F3 cells; settings: MTS assay, 72 hours, Table 9 key
T5 construct: expressed in transfected cells; host or cells: Ba/F3
T5 sequence (P04626 with tags, fused parts or gaps INS775YVMA): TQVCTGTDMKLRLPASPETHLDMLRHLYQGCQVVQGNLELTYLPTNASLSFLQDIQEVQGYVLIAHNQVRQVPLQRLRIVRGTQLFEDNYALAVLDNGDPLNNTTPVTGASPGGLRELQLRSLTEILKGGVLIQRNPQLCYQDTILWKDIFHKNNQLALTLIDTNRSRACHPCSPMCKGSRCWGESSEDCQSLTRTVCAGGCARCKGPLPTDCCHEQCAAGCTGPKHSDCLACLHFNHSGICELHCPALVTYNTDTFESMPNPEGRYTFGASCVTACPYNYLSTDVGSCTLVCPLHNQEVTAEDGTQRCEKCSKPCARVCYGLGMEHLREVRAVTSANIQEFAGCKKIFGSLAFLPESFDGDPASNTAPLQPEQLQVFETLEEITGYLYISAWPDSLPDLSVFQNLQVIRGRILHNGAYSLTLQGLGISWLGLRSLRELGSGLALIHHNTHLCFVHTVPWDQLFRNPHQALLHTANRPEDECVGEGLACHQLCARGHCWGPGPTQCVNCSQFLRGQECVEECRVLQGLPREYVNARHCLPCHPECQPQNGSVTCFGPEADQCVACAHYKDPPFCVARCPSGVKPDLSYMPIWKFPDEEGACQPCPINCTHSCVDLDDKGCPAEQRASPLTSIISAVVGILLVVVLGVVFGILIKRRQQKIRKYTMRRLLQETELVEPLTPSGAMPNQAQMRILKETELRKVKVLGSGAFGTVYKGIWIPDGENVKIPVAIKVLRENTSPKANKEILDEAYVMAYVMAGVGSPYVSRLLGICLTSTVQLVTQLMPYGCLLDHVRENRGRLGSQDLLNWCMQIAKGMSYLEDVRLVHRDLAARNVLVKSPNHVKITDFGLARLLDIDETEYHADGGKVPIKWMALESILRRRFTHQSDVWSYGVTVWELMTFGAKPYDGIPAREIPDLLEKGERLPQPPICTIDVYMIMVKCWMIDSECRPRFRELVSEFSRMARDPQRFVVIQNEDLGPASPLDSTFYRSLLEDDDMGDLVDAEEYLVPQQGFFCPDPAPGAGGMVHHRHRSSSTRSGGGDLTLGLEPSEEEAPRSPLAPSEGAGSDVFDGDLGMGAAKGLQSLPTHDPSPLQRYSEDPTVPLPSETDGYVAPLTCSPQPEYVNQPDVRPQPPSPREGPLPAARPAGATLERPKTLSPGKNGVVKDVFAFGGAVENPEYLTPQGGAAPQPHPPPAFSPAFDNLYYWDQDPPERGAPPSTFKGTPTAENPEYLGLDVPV
Procedure: as §1, §2, §3

[8] = target: T6, wild-type EGFR transformed Ba/F3 cells (Homo sapiens, UniProt P00533); experiment: Western blot, EGFR phosphorylation, wild-type EGFR Ba/F3 cells; settings: indicated concentrations, 6 hours of treatment
T6 construct: expressed in transfected cells; host or cells: Ba/F3
Procedure: (§4) Cells are seeded and grow in culture plates, and then treated with representative compounds of the application the following day for various duration. Cells are washed with PBS and lysed.
(§5) Cells were plated at 5×10^5 cells per well in 6-well plates and treated with representative compounds of the application the following day. After 6 hours of treatment, cells were washed with PBS and lysed with NP40 buffer (Calbiochem®) supplemented with Complete™ Mini protease inhibitor and PhosSTOP™ phosphatase inhibitors (Rocheg).
(§6) Western blot analysis was then performed on the cells. The cells were plated at 5×10^5 cells per well in 6-well plates and treated with the indicated concentrations of the compound.
(§7) After 6 hours of treatment, cells were washed with PBS and lysed with NP40 buffer (Calbiochem) supplemented with Complete Mini protease inhibitor and PhosSTOP phosphatase inhibitors (Roche).

[9] = target: T7, EGFR InsNPG (D770_N771insNPG) transformed Ba/F3 cells (Homo sapiens, UniProt P00533, INS770NPG); experiment: Proliferation inhibition assay, EGFR InsNPG transformed Ba/F3 cells; settings: MTS assay, 72 hours
T7 construct: expressed in transfected cells; host or cells: Ba/F3
Procedure: as §1, §2, §3

[10] = target: T8, HER2 InsWLV transformed Ba/F3 cells (Homo sapiens, UniProt P04626, INS773WL/M774V); experiment: Proliferation inhibition assay, HER2 InsWLV transformed Ba/F3 cells; settings: MTS assay, 72 hours, Table 9 key
T8 construct: expressed in transfected cells; host or cells: Ba/F3
T8 sequence (P04626 with tags, fused parts or gaps INS773WL/M774V): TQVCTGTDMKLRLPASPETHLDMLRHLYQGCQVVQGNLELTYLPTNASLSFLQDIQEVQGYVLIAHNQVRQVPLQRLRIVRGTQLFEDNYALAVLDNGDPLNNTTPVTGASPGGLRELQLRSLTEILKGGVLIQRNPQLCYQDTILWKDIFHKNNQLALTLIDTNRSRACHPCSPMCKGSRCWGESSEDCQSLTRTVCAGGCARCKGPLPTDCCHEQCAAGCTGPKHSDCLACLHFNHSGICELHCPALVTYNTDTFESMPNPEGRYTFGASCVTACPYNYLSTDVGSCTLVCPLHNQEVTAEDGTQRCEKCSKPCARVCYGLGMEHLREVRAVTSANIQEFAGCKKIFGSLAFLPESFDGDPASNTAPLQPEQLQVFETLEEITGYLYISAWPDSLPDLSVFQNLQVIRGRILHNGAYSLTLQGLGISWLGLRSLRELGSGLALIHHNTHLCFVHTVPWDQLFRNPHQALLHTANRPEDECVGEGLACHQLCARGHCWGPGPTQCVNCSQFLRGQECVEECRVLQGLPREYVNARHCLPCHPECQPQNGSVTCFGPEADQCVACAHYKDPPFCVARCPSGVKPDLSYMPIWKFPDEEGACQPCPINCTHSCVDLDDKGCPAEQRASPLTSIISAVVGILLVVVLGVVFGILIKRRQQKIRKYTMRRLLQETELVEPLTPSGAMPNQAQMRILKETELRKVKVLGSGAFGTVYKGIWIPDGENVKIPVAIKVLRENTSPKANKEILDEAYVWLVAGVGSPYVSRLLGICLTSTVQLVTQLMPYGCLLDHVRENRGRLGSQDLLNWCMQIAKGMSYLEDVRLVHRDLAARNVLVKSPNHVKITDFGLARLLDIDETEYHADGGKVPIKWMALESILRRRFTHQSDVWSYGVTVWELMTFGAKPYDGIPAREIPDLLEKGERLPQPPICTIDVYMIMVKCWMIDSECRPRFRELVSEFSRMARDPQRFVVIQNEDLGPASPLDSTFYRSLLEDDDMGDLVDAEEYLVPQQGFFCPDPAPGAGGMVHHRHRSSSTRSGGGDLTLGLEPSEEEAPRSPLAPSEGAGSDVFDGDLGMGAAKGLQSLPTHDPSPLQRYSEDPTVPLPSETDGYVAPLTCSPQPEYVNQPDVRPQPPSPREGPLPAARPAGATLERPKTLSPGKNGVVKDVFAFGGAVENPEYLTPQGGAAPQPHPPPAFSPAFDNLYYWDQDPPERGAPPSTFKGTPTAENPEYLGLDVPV
Procedure: as §1, §2, §3

[11] = target: T9, EGFR InsSVD (D770_N771insSVD) transformed Ba/F3 cells (Homo sapiens, UniProt P00533, INS770SVD); experiment: Proliferation inhibition assay, EGFR InsSVD transformed Ba/F3 cells; settings: MTS assay, 72 hours
T9 construct: expressed in transfected cells; host or cells: Ba/F3
Procedure: as §1, §2, §3

[12] = target: T10, EGFR InsHH (Y764_V765insHH) transformed Ba/F3 cells (Homo sapiens, UniProt P00533, INS764HH); experiment: Proliferation inhibition assay, EGFR InsHH transformed Ba/F3 cells; settings: MTS assay, 72 hours
T10 construct: expressed in transfected cells; host or cells: Ba/F3
Procedure: as §1, §2, §3

[13] = target: T11, wild-type HER2 transformed Ba/F3 cells (Homo sapiens, UniProt P04626); experiment: Proliferation inhibition assay, wild-type HER2 transformed Ba/F3 cells; settings: MTS assay, 72 hours, Table 9 key
T11 construct: expressed in transfected cells; host or cells: Ba/F3
T11 sequence (P04626 23-1255): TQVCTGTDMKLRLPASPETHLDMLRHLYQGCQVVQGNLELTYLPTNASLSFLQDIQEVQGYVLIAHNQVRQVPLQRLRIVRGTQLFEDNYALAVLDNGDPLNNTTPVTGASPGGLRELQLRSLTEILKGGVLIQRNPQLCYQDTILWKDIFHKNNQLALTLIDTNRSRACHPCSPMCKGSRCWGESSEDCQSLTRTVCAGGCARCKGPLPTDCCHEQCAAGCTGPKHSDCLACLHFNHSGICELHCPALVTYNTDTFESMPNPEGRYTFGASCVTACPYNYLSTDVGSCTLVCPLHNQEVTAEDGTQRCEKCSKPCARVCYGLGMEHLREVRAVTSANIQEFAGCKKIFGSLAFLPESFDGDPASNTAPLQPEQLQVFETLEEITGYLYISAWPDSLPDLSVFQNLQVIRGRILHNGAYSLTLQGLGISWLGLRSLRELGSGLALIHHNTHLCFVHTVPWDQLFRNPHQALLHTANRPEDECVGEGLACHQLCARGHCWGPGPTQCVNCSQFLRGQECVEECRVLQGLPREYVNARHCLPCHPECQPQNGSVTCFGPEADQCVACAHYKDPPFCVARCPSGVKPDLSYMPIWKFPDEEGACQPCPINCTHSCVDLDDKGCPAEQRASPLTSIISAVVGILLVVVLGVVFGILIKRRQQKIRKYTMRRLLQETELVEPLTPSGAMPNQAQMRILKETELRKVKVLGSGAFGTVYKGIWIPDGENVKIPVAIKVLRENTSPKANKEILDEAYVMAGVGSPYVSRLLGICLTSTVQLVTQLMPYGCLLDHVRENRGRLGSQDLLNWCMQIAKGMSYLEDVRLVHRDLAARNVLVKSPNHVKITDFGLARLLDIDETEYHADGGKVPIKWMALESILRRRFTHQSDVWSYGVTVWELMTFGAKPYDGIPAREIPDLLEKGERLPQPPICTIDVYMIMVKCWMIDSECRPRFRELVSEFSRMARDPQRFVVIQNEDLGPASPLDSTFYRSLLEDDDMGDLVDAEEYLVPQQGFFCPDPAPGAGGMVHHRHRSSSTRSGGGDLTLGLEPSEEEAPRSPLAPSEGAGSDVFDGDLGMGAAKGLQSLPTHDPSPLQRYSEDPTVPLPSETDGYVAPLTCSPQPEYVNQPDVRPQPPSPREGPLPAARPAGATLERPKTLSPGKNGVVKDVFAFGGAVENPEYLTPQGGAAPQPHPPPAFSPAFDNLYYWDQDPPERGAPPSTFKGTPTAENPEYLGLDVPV
Procedure: as §1, §2, §3

[14] = target: T6, wild-type EGFR transformed Ba/F3 cells; experiment: Proliferation inhibition assay, wild-type EGFR transformed Ba/F3 cells; settings: MTS assay, 72 hours
Procedure: as §1, §2, §3

[15] = target: T12, EGFR InsGY transformed Ba/F3 cells (Homo sapiens, UniProt P00533, D770Y/INS769G); experiment: Western blot, EGFR phosphorylation, EGFR InsGY Ba/F3 cells; settings: indicated concentrations, 6 hours of treatment
T12 construct: expressed in transfected cells; host or cells: Ba/F3
Procedure: as §4, §5, §6, §7

[16] = target: T13, EGFR InsGY (D770delinsGY) transformed Ba/F3 cells (Homo sapiens, UniProt P00533, D770Y/INS769G); experiment: Proliferation inhibition assay, EGFR InsGY transformed Ba/F3 cells; settings: MTS assay, 72 hours
T13 construct: expressed in transfected cells; host or cells: Ba/F3
Procedure: as §1, §2, §3

[17] = target: T14, mutant EGFR T790M/L858R transformed Ba/F3 cells (Homo sapiens, UniProt P00533, L858R/T790M); experiment: Proliferation inhibition assay, EGFR T790M/L858R transformed Ba/F3 cells
T14 construct: expressed in transfected cells; host or cells: Ba/F3

[18] = target: T15, EGFR InsSVD transformed Ba/F3 cells (Homo sapiens, UniProt P00533, INS770SVD); experiment: Western blot, EGFR phosphorylation, EGFR InsSVD Ba/F3 cells; settings: indicated concentrations, 6 hours of treatment
T15 construct: expressed in transfected cells; host or cells: Ba/F3
Procedure: as §4, §5, §6, §7

[19] = target: T16, EGFR InsASV (V769_D770insASV) transformed Ba/F3 cells (Homo sapiens, UniProt P00533, INS769ASV); experiment: Proliferation inhibition assay, EGFR InsASV transformed Ba/F3 cells; settings: MTS assay, 72 hours
T16 construct: expressed in transfected cells; host or cells: Ba/F3
Procedure: as §1, §2, §3

EC50 [1]: < 100 nM | EC50 [2]: < 200 nM | EC50 [3]: < 100 nM | EC50 [4]: < 100 nM | EC50 [5]: < 100 nM | EC50 [6]: < 100 nM | EC50 [7]: < 100 nM | EGFR phosphorylation (Western blot, FIG. 1) [8]: decrease in EGFR phosphorylation | EC50 [9]: < 200 nM | EC50 [10]: < 100 nM | EC50 [11]: < 200 nM | EC50 [12]: < 200 nM | EC50 [13]: < 100 nM | EC50 [14]: < 200 nM | EGFR phosphorylation (Western blot, FIG. 1) [15]: decrease in EGFR phosphorylation | EC50 [16]: < 200 nM | EC50 [17]: < 100 nM | EGFR phosphorylation (Western blot, FIG. 1) [18]: decrease in EGFR phosphorylation | EC50 [19]: < 200 nM
SMILES: C=CC(=O)Nc1cccc(-n2c(=O)c(Oc3ccc(F)cc3F)cc3cnc(Nc4cnn(C)c4)nc32)c1 [Compound 2]
